Results as given in PubChem BioAssay AID1963423 (Molecular Pharmacology Branch, DTP, NCI, 2024).
pIC50: −log10 of the molar value.

Tested on: 439559-082-T-J2-PDC complex spheroid growth
Assay: Anticancer human tumor 439559-082-T-J2-PDC patient-derived colon adenocarcinoma cell line growth inhibition [Asc]
Conditions: for pIC50: curve of first compound; for viability, T/C: stronger effect = lower value
Procedure, shortened: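 Tumor cells were grown as multicellular spheroids with stromal HUVEC and mesenchymal stem cells and treated singly or in combination. Concentrations fell in half-log steps from the clinical Cmax, or from 10 microM where none was known.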

[1] = second compound 0.03 µM, first compound 0.00316 µM
[2] = second compound 0.03 µM, first compound 0.01 µM
[3] = second compound 0.03 µM, first compound 0.0316 µM
[4] = second compound 0.03 µM, first compound 0.1 µM
[5] = second compound 0.0949 µM, first compound 0.00316 µM
[6] = second compound 0.0949 µM, first compound 0.01 µM
[7] = second compound 0.0949 µM, first compound 0.0316 µM
[8] = second compound 0.0949 µM, first compound 0.1 µM
[9] = second compound 0.3 µM, first compound 0.00316 µM
[10] = second compound 0.3 µM, first compound 0.01 µM
[11] = second compound 0.3 µM, first compound 0.0316 µM
[12] = second compound 0.3 µM, first compound 0.1 µM
[13] = second compound 0.949 µM, first compound 0.00316 µM
[14] = second compound 0.949 µM, first compound 0.01 µM
[15] = second compound 0.949 µM, first compound 0.0316 µM
[16] = second compound 0.949 µM, first compound 0.1 µM
[17] = second compound 3 µM, first compound 0.00316 µM
[18] = second compound 3 µM, first compound 0.01 µM
[19] = second compound 3 µM, first compound 0.0316 µM
[20] = second compound 3 µM, first compound 0.1 µM
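Note: spheroids exposed to agents for 7 days starting day 3 after seeding.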
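Throughout, for viability, T/C: percent of DMSO vehicle control viability with 100% = vehicle.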

Question: COc1c(OCCCN2CCOCC2)ccc2c3n(c(=NC(=O)c4cnc(N)nc4)nc12)CCN3 + CCN1C(C(=O)NC23CCC(C(=O)O)(CC2)CC3)C(c2cccc(Cl)c2F)C2(C(=O)Nc3cc(Cl)ccc32)C12CCCCC2 was tested. Which pIC50 (second compound 0.03 µM) did it give?
Answer: < 6.00

Question: And the pIC50 (second compound 0.0949 µM)?
Answer: < 6.00

Question: What about the pIC50 (second compound 0.3 µM) of the same molecule?
Answer: < 6.00

Question: What about the pIC50 (second compound 0.949 µM) of the same molecule?
Answer: < 6.00

Question: And the pIC50 (second compound 3 µM)?
Answer: < 6.00

Question: And the viability, T/C [1]?
Answer: 98.5%

Question: And the viability, T/C [2]?
Answer: 98.3%

Question: What about the viability, T/C [3] of the same molecule?
Answer: 94.1%

Question: And the viability, T/C [4]?
Answer: 71.7%

Question: What about the viability, T/C (second compound 0.03 µM, first compound 0.316 µM) of the same molecule?
Answer: 63.3%

Question: And the viability, T/C (second compound 0.03 µM, first compound 1 µM)?
Answer: 57.4%

Question: What about the viability, T/C [5] of the same molecule?
Answer: 96.4%

Question: What about the viability, T/C [6] of the same molecule?
Answer: 96.9%

Question: And the viability, T/C [7]?
Answer: 90.7%

Question: What about the viability, T/C [8] of the same molecule?
Answer: 69%

Question: What about the viability, T/C (second compound 0.0949 µM, first compound 0.316 µM) of the same molecule?
Answer: 67.3%

Question: What about the viability, T/C (second compound 0.0949 µM, first compound 1 µM) of the same molecule?
Answer: 60.8%

Question: And the viability, T/C [9]?
Answer: 88.9%

Question: What about the viability, T/C [10] of the same molecule?
Answer: 99.9%

Question: And the viability, T/C [11]?
Answer: 89.4%

Question: What about the viability, T/C [12] of the same molecule?
Answer: 68.7%

Question: And the viability, T/C (second compound 0.3 µM, first compound 0.316 µM)?
Answer: 59.7%

Question: And the viability, T/C (second compound 0.3 µM, first compound 1 µM)?
Answer: 60.9%

Question: And the viability, T/C [13]?
Answer: 95.8%

Question: What about the viability, T/C [14] of the same molecule?
Answer: 98.3%

Question: What about the viability, T/C [15] of the same molecule?
Answer: 96.6%

Question: And the viability, T/C [16]?
Answer: 69.5%

Question: What about the viability, T/C (second compound 0.949 µM, first compound 0.316 µM) of the same molecule?
Answer: 60.6%

Question: What about the viability, T/C (second compound 0.949 µM, first compound 1 µM) of the same molecule?
Answer: 63.1%

Question: And the viability, T/C [17]?
Answer: 80.1%

Question: And the viability, T/C [18]?
Answer: 83.8%

Question: What about the viability, T/C [19] of the same molecule?
Answer: 93.2%

Question: And the viability, T/C [20]?
Answer: 63%

Question: What about the viability, T/C (second compound 3 µM, first compound 0.316 µM) of the same molecule?
Answer: 59%

Question: What about the viability, T/C (second compound 3 µM, first compound 1 µM) of the same molecule?
Answer: 55.2%

Question: Which results are given for NC(=O)C(=Cn1cnc(-c2cc(C(F)(F)F)cc(C(F)(F)F)c2)n1)c1cncnc1 + CCN1C(C(=O)NC23CCC(C(=O)O)(CC2)CC3)C(c2cccc(Cl)c2F)C2(C(=O)Nc3cc(Cl)ccc32)C12CCCCC2?
Answer: pIC50 (second compound 0.03 µM): < 6.52; pIC50 (second compound 0.0949 µM): < 6.52; pIC50 (second compound 0.3 µM): < 6.52; pIC50 (second compound 0.949 µM): < 6.52; pIC50 (second compound 3 µM): < 6.52; viability, T/C (second compound 0.03 µM, first compound 0.000949 µM): 96.7%; viability, T/C (second compound 0.03 µM, first compound 0.003 µM): 103%; viability, T/C (second compound 0.03 µM, first compound 0.00949 µM): 103%; viability, T/C (second compound 0.03 µM, first compound 0.03 µM): 90.9%; viability, T/C (second compound 0.03 µM, first compound 0.0949 µM): 95.2%; viability, T/C (second compound 0.03 µM, first compound 0.3 µM): 81.9%; viability, T/C (second compound 0.0949 µM, first compound 0.000949 µM): 98.5%; viability, T/C (second compound 0.0949 µM, first compound 0.003 µM): 113%; viability, T/C (second compound 0.0949 µM, first compound 0.00949 µM): 107%; viability, T/C (second compound 0.0949 µM, first compound 0.03 µM): 83.2%; viability, T/C (second compound 0.0949 µM, first compound 0.0949 µM): 89.4%; viability, T/C (second compound 0.0949 µM, first compound 0.3 µM): 83.3%; viability, T/C (second compound 0.3 µM, first compound 0.000949 µM): 106%; viability, T/C (second compound 0.3 µM, first compound 0.003 µM): 102%; viability, T/C (second compound 0.3 µM, first compound 0.00949 µM): 105%; viability, T/C (second compound 0.3 µM, first compound 0.03 µM): 88.2%; viability, T/C (second compound 0.3 µM, first compound 0.0949 µM): 93.2%; viability, T/C (second compound 0.3 µM, first compound 0.3 µM): 80.8%; viability, T/C (second compound 0.949 µM, first compound 0.000949 µM): 105%; viability, T/C (second compound 0.949 µM, first compound 0.003 µM): 104%; viability, T/C (second compound 0.949 µM, first compound 0.00949 µM): 110%; viability, T/C (second compound 0.949 µM, first compound 0.03 µM): 90.3%; viability, T/C (second compound 0.949 µM, first compound 0.0949 µM): 88.6%; viability, T/C (second compound 0.949 µM, first compound 0.3 µM): 86.8%; viability, T/C (second compound 3 µM, first compound 0.000949 µM): 87.3%; viability, T/C (second compound 3 µM, first compound 0.003 µM): 93.2%; viability, T/C (second compound 3 µM, first compound 0.00949 µM): 96.6%; viability, T/C (second compound 3 µM, first compound 0.03 µM): 87.5%; viability, T/C (second compound 3 µM, first compound 0.0949 µM): 75%; viability, T/C (second compound 3 µM, first compound 0.3 µM): 67.7%

Question: How did the pIC50 (second compound 0.03 µM) turn out when NC1CCC(NC2CC2c2ccccc2)CC1 (stereo not given) + CCN1C(C(=O)NC23CCC(C(=O)O)(CC2)CC3)C(c2cccc(Cl)c2F)C2(C(=O)Nc3cc(Cl)ccc32)C12CCCCC2 was run?
Answer: < 7.00

Question: And the pIC50 (second compound 0.0949 µM)?
Answer: < 7.00

Question: What about the pIC50 (second compound 0.3 µM) of the same molecule?
Answer: < 7.00

Question: What about the pIC50 (second compound 0.949 µM) of the same molecule?
Answer: < 7.00

Question: What about the pIC50 (second compound 3 µM) of the same molecule?
Answer: < 7.00

Question: What about the viability, T/C (second compound 0.03 µM, first compound 0.000316 µM) of the same molecule?
Answer: 95.4%

Question: And the viability, T/C (second compound 0.03 µM, first compound 0.001 µM)?
Answer: 107%

Question: And the viability, T/C [1]?
Answer: 119%

Question: And the viability, T/C [2]?
Answer: 95.5%

Question: And the viability, T/C [3]?
Answer: 102%

Question: And the viability, T/C [4]?
Answer: 99.7%

Question: And the viability, T/C (second compound 0.0949 µM, first compound 0.000316 µM)?
Answer: 105%

Question: And the viability, T/C (second compound 0.0949 µM, first compound 0.001 µM)?
Answer: 111%

Question: What about the viability, T/C [5] of the same molecule?
Answer: 123%

Question: And the viability, T/C [6]?
Answer: 100%

Question: And the viability, T/C [7]?
Answer: 98.8%

Question: What about the viability, T/C [8] of the same molecule?
Answer: 107%

Question: What about the viability, T/C (second compound 0.3 µM, first compound 0.000316 µM) of the same molecule?
Answer: 97.6%

Question: What about the viability, T/C (second compound 0.3 µM, first compound 0.001 µM) of the same molecule?
Answer: 111%

Question: And the viability, T/C [9]?
Answer: 110%

Question: What about the viability, T/C [10] of the same molecule?
Answer: 98.4%

Question: What about the viability, T/C [11] of the same molecule?
Answer: 110%

Question: And the viability, T/C [12]?
Answer: 111%

Question: And the viability, T/C (second compound 0.949 µM, first compound 0.000316 µM)?
Answer: 111%

Question: And the viability, T/C (second compound 0.949 µM, first compound 0.001 µM)?
Answer: 124%

Question: And the viability, T/C [13]?
Answer: 121%

Question: And the viability, T/C [14]?
Answer: 100%

Question: What about the viability, T/C [15] of the same molecule?
Answer: 107%

Question: And the viability, T/C [16]?
Answer: 114%

Question: And the viability, T/C (second compound 3 µM, first compound 0.000316 µM)?
Answer: 96.8%

Question: What about the viability, T/C (second compound 3 µM, first compound 0.001 µM) of the same molecule?
Answer: 98.5%

Question: And the viability, T/C [17]?
Answer: 103%

Question: And the viability, T/C [18]?
Answer: 98.6%

Question: What about the viability, T/C [19] of the same molecule?
Answer: 94.1%

Question: What about the viability, T/C [20] of the same molecule?
Answer: 107%
